Experimental data: US11596670B2, “Treatment of a disease of the gastrointestinal tract with IL-10 or an IL-10 agonist” (BIORA THERAPEUTICS, INC., priority 2017, dated 2023)

Legend:
in vivo = assay: in vivo
Experimental: The primary objective of this study was to study the pharmacokinetics of oral versus intra-cecal administration of tacrolimus in normal Yorkshire-Cross farm swine.
This study compares the effects of administration of: a single intra-cecal administration of a device containing 0.8 mL sterile vehicle solution (80% alcohol, 20% castor oil (HCO-60)); a single oral dose of tacrolimus at 0.09 mg/kg (in sterile vehicle solution); and a single intra-cecal administration of a device containing either 0.02 mg/kg (in sterile vehicle solution), 0.04 mg/kg (in sterile vehicle solution), or 0.09 mg/kg (in sterile vehicle solution).
This study employed five groups of three female swine weighing approximately 45 to 50 kg at study start. Swine were randomly placed into animal rooms/pens as they are transferred from the delivery vehicle without regard to group. Group numbers were assigned to the rooms in order of room number. No further randomization procedure was employed.
Animals in Group 1 received intra-cecally a device containing a vehicle solution (80% alcohol, 20% HCO-60). Animals in Group 2 received orally a liquid formulation of tacrolimus at 0.09 mg/kg per animal. Animals in Group 3 received intra-cecally a device containing tacrolimus at 0.02 mg/kg per device. Animals in Group 4 received intra-cecally a device containing tacrolimus 0.04 mg/kg per device. Animals in Group 5 received intra-cecally a device containing tacrolimus 0.09 mg/kg per device.

[1] = Tissue, plasma, rectal sample and GI content pharmacokinetics of tacrolimus, oral vs. intra-cecal ingestible device (Example 10); set-up: species or system Yorkshire-Cross farm swine; settings: in vivo; for Cmax: female, Yorkshire-Cross, pig, IC capsule
Experimental: No further randomization procedure was employed.
Animals in Group 1 received an ingestible device containing 0.8 mL of vehicle solution (80% alcohol, 20% HCO-60). Animals in Group 2 received orally […] liquid formulation of tacrolimus at 4 mg/0.8 mL per animal (Prograf: 5 mg/mL). Animals in Group 3 received intra-cecally an ingestible device containing tacrolimus at 1 mg in 0.8 mL per ingestible device. Animals in Group 4 received intra-cecally an ingestible device containing tacrolimus at 2 mg in 0.8 mL per ingestible device. Animals in Group 5 received intra-cecally an ingestible device containing tacrolimus at 4 mg in 0.8 mL per ingestible device. To control for potential confounding effects of the surgery, all groups fast on Day −11 at least 24 hr before being subjected to anesthesia followed by surgical placements of a cecal port by a veterinary surgeon at Day −10. All animals were fasted for at least 12 hr prior to dosing on Day 1. Animals were dosed via either intra-cecal dosing (IC) or oral dosing (PO) at Day 1 (between 6-8 p.m.). All animals resumed feeding at approximately 4 hours after dose (11-12 p.m. after dosing).
Animals in Group 1 (Vehicle Control) were administered a single intra-cecal ingestible device containing 0.8 mL Vehicle solution (80% alcohol, 20% castor oil (HCO-60) on Day 1. On Day −10 the animals were anesthetized, and a veterinary surgeon surgically placed an intra-cecal port in each animal. On Day 1, each animal was placed into a sling then a single intra-cecal ingestible device containing 0.8 mL vehicle solution (80% alcohol, 20% castor oil (HCO-60)) is introduced by the veterinary surgeon into the cecum via the cecal port in each animal. Following ingestible device placement, the animals were removed from the slings and placed back into their pens with water. All animals resumed feeding at approximately 4 hours after dose. […] A total of 60 samples were collected.
Approximately 200˜400 mg of rectal content were collected, if available, with a fecal swab (Copan Diagnostics Nylon Flocked Dry Swabs, 502CS01). The fecal swab was pre-weighed and weighed after collection in the collection tube (Sterile Tube and Cap No Media, PFPM913S), and the sample weight was recorded. The fecal swab was broken via the breakpoint, and was stored in the collection tube, and immediately frozen at −70° C. […] Immediately following euthanasia, tissue was collected.
For tissue necropsy, small intestine fluid and cecal fluid were collected separately from all the animals into two separate square plastic bottles, and stored at −20° C. The length and diameter of the cecum and the colon was measured from one animal in each group and recorded for reference. Tissues were collected for pharmacokinetic analyses and include mesenteric lymph nodes, a Peyer's Patch, and five gastrointestinal sections, including cecum, proximal colon, transverse colon, distal colon, and rectum. All samples were weighed, and the tissue sample weights were recorded. In each of the five gastrointestinal sections, tissue samples were collected in three different areas where the mucosal surface was visible and not covered by luminal content by using an 8.0-mm punch biopsy tool. Around 3 grams of the total punched sample were collected into a pre-weighed 15-mL conical tube, and the tissue weight was recorded. Three mesenteric lymph nodes were collected from different areas and weighed. At least one Peyer's Patch was collected and weighed.
Luminal contents were collected for pharmacokinetic analyses from the surface of the tissue from each of five gastrointestinal sections: cecum, proximal colon, transverse colon, distal colon, and rectum (total of 75).

[2] = female, Yorkshire-Cross, pig, in vivo, 0.02 mg/kg
[3] = female, Yorkshire-Cross, pig, in vivo, 0.09 mg/kg

For C=CC[C@@H]1/C=C(\C)C[C@H](C)C[C@H](OC)[C@H]2O[C@@](O)(C(=O)C(=O)N3CCCC[C@H]3C(=O)O[C@H](/C(C)=C/[C@@H]3CC[C@@H](O)[C@H](OC)C3)[C@H](C)[C@@H](O)CC1=O)[C@H](C)C[C@@H]2OC [tacrolimus], the AUC (in vivo; female, Yorkshire-Cross, pig, 0.02 mg/kg) was 15.3 ± 2.36 ng·h/mL, the AUC (in vivo; female, Yorkshire-Cross, pig, 0.04 mg/kg) was 51.4 ± 4.04 ng·h/mL and the AUC(0-t) (in vivo; [2]) was 15.3 ng·h/mL. For the same molecule, the Cmax (in vivo; [2]) was 2.39 ± 0.57 ng/mL, the AUC(0-t) (in vivo; female, Yorkshire-Cross, pig, in vivo, 0.04 mg/kg) was 51.4 ng·h/mL and the AUC (in vivo; [3]) was 130 ± 7.83 ng·h/mL. It also gave an AUC(0-t) (in vivo; [3]) of 130 ng·h/mL, an AUC(0-t) (in vivo; female, Yorkshire-Cross, pig, in vivo, po, 0.09 mg/kg) of 16.8 ng·h/mL and an AUC (in vivo; female, Yorkshire-Cross, pig, po, 0.09 mg/kg) of 16.8 ± 3.64 ng·h/mL. For the same molecule, the concentration at 12 h (in vivo; female, Yorkshire-Cross, pig, po, 0.09 mg/kg, Trough (12 hr)) was 0.568 ± 0.291 ng/mL, the Kp at 12 h (in vivo; female, Yorkshire-Cross, swine, po, 0.09 mg/kg) was 0 and the “Ratio Tissue (mean) (ng/g)/ Trough(12 hr)(ng/ml)” value (in vivo; female, Yorkshire-Cross, swine, po, 0.09 mg/kg, 12 h) was 0. For the same molecule, the “mean concentration and AUC0-12 hours of tacrolimus in the blood” value (in vivo; po, 0.09 mg/kg) was “higher”, the Cmax ([1]; high (0.09 mg/kg) dose (first value)) was 9.2 ± 3.3 ng/mL and the Cmax ([1]; moderate (0.04 mg/kg) dose) was 21.8 ± 4.73 ng/mL. For the same molecule, the “luminal content (spiral, transverse, and distal colon) concentrations” value [1] was “Significantly higher”, the “mean concentration of tacrolimus in the cecum tissue and the proximate colon tissue” value [1] was “higher” and the “tissue (spiral and transverse colon) concentrations” value [1] was “Significantly higher”. The “level of tacrolimus in tissue” value ([1]; po) was “No measurable level”.
